Measurements from patent publication US12240859B2, “Turbinmicin compounds, compositions and uses thereof” (Wisconsin Alumni Research Foundation, priority 2019, dated 2025).
In brackets after ≈: the same amount, converted by molar mass. Where two headings read alike, the source gives them in different places.

How the values were obtained:
[1] = tested on: C. albicans; experiment: In vitro MIC susceptibility testing, broth microdilution; assay type: cell-based, Candida albicans; conditions: Candida albicans
Protocol: (§1) In vitro MIC susceptibility testing. […]. Amphotericin B was used as a positive control and the MICs range were 0.25-1.5 μg/mL. Six untreated media controls were included on each plate. The plates were incubated at 33° C. for 72 h. The MICs were determined as the lowest concentration that inhibited visible growth. The MICs were read at 24, 48, and 72 hours, respectively. […]

[2] = tested on: C. tropicalis; experiment: as above; assay type: cell-based; conditions: Candida tropicalis
Protocol: In vitro MIC susceptibility testing. […] The plates were incubated at 33° C. for 72 h. The MICs were determined as the lowest concentration that inhibited visible growth. The MICs were read at 24, 48, and 72 hours, respectively.

[3] = tested on: C. auris; experiment: as above; assay type: cell-based, Candida auris; conditions: Candidozyma auris
Protocol: as §1

[4] = tested on: sheep red blood cells; experiment: Hemolysis assay; assay type: cell-based; conditions: 1 h, concentrations exceeding the MIC by 1000-fold
Protocol: Hemolysis Assay. Assays were performed in 384-well plates using sheep blood (0.1% triton as the positive control). Sheep's blood (Ward's Science) was washed with PBS and diluted to a concentration of 6×10^7 red blood cells per ml. A volume of 50 μL of blood was incubated with compound for 1 h, and subsequently pelleted at 4000 rpm for 10 min. Thirty microliters of supernatant were transferred to a clear plate and OD570 was read. An increase in OD indicated the red blood cell lysis and hemolytic activity.

[5] = tested on: C. auris; experiment: Time kill experiments; assay type: cell-based, Candida auris; conditions: C. auris (B11211, FIG. 6A), 1x to 16x MIC, 0-48 h
Protocol: FIGS. 6A-C show time-kill curves for turbinmicin against (6A) C. auris B11211, (6B) C. albicans K-1, and (6C) C. glabrata 4720.
Time Kill Experiments. Fresh Candida colonies from an overnight growth were added to normal saline and the turbidity was adjusted to a 0.6 transmittance at 530 nm to provide a standard suspension (1*10^6 CFU/mL). This suspension was diluted with RPMI 1640 medium buffered with MOPS and a standard compound stock solution to achieve a starting inoculum of approximately 10^5 CFU/ml. Each 20 mL culture (RPMI 1640 medium buffered with MOPS) was incubated at 35° C. with constant shaking, and 0.1 mL samples were withdrawn for the determination of fungal counts at 0, 2, 4, 6, 8, 24 and 48 h. Colony counts were determined by viable counts on sabouraud agar plate (SDA) after incubation for 48 h. Growth control for each organism were prepared without antifungal and run in parallel.

[6] = Solubility of turbinmicin in aqueous solvents; assay type: physicochemical
Excerpt: In some embodiments, the pharmaceutical composition comprises turbinmicin and a pharmaceutically acceptable carrier comprising aqueous DMSO, e.g., DMSO in water, DMSO in 0.9% saline or DMSO in phosphate buffered saline (e.g., about 0.01 to about 0.1 molar Na/K phosphate buffer, about pH 7.4). In some embodiments the amount of DMSO in aqueous solution varies from at least about 1% by weight to about 80% by weight. […]. As turbinmicin had limited aqueous solubility, various solubilizing conditions (Table 4) were tested.

[7] = tested on: C. albicans K1; experiment: Neutropenic murine disseminated candidiasis model, C. albicans K1; assay type: in vivo, Candida albicans; conditions: mice
Excerpt: Animals. Six-week-old ICR Swiss specific-pathogen-free female mice weighing 23 to 27 g were used for all studies. Animals were maintained in accordance with the American Association for Accreditation of Laboratory Care criteria. Animal studies were approved by the University of Wisconsin Animal Research Committee.
C. auris B11211 and C. albicans K1 Infection model. A neutropenic, murine, disseminated candidiasis model was used for the treatment studies. Mice were rendered neutropenic (neutrophils, <100/mm^3) by injecting them with cyclophosphamide (Mead Johnson Pharmaceuticals, Evansville, IN) subcutaneously 4 days (150 mg/kg) and 1 day (100 mg/kg) before infection, and 2 days after infection (100 mg/kg). Previous studies have shown neutropenia (<100 mm^3) in this model for the 96-h study period.
Disseminated infection with C. auris B11211 infection was produced by injection of 0.1 ml of the inoculum via the lateral tail vein 2 h prior to the start of antifungal therapy. […] The results are expressed as the mean and standard deviation of the log10 CFU/kidney from three mice. […]
Results. A multi-dose experiment with C. auris B11211 infection murine model was evaluated, and four doses (1, 2, 4, and 8 mg/kg) of turbinmicin were administered to mice every six hours over a 24 h period; turbinmicin was administered by intraperitoneal route.

Work on `C/C=C/C=C/C=C/C(=O)OC1C=CCC2C(=O)c3c(O)c4c5c(c3OC12)OCOC5CC1C(=O)c2cc(C)[nH]c(=O)c2C(=O)C41O` (stereo not drawn) [Turbinmicin, turbinmicin] yielded an MIC ([1]; strain 98-17) of 0.25 µg/mL (≈ 0.398 µM), an MIC ([1]; strain 98-210) of 0.25 µg/mL (≈ 0.398 µM) and an MIC ([1]; strain 580) of 0.5 µg/mL (≈ 0.797 µM). The MIC ([1]; strain K1 (K-1)) was 0.25 µg/mL (≈ 0.398 µM), the MIC ([1]; strain SN250) was 0.25 µg/mL (≈ 0.398 µM) and the MIC ([2]; ATCC750, strain ATCC 750) was 0.25 µg/mL (≈ 0.398 µM). The MIC ([2]; strain 001) was 0.5 µg/mL (≈ 0.797 µM), the MIC ([2]; strain 98-234) was 0.5 µg/mL (≈ 0.797 µM) and the MIC ([2]; strain 1751) was 0.25 µg/mL (≈ 0.398 µM). For the same compound, the MIC ([2]; strain 2597) was 0.25 µg/mL (≈ 0.398 µM), the MIC ([3]; strain B11104) was 0.5 µg/mL (≈ 0.797 µM) and the MIC ([3]; strain B11203) was 0.5 µg/mL (≈ 0.797 µM). It also gave an MIC ([3]; strain B11211, resistant to amphotericin B, fluconazole, micafungin, read-out: MIC) of 0.25 µg/mL (≈ 0.398 µM), an MIC ([3]; strain B11219) of 0.25 µg/mL (≈ 0.398 µM) and an MIC ([3]; strain B11220) of 0.125 µg/mL (≈ 0.199 µM). It also gave an MIC ([3]; strain B11221) of 0.5 µg/mL (≈ 0.797 µM), an MIC ([3]; strain B11785) of 0.25 µg/mL (≈ 0.398 µM) and an MIC ([3]; strain B11799) of 0.5 µg/mL (≈ 0.797 µM). The MIC ([3]; strain B11801) was 0.5 µg/mL (≈ 0.797 µM), the MIC ([3]; strain B11804) was 0.5 µg/mL (≈ 0.797 µM) and the “red blood cell toxicity (hemolysis)” value [4] was “did not exhibit red blood cell toxicity”. The time-kill activity [5] was “Fungacidal activity was observed”, the “Highest Turbmicin conc. Achieved” value ([6]; No. 2, DMSO (1% in PBS)) was no more than 0.5 mg/mL and the “Highest Turbmicin conc. Achieved” value ([6]; No. 4, DMSO (10% in PBS)) was 2 mg/mL. The “Highest Turbmicin conc. Achieved” value ([6]; No. 5, PEG 400 (50% in PBS)) was no more than 0.5 mg/mL, the “Highest Turbmicin conc. Achieved” value ([6]; No. 6, Kolliphor EL (10% in PBS)) was no more than 0.5 mg/mL and the “Highest Turbmicin conc. Achieved” value ([6]; No. 7, Tween 80 (2% in PBS)) was no more than 0.5 mg/mL. For the same compound, the solubility ([6]; aqueous with cosolvent or surfactant or cyclodextrin, mixtures of DMSO and water, read-out: concentration solubilized) was greater than 500 µg/mL, the solubility ([6]; pH 7.4, aqueous buffer, No. 1, PBS, read-out: Highest Turbmicin conc. Achieved) was no more than 500 µg/mL and the solubility ([6]; pH 7.4, aqueous with cosolvent or surfactant or cyclodextrin, No. 3, DMSO (5% in PBS), read-out: Highest Turbmicin conc. Achieved) was no more than 1000 µg/mL. For the same compound, the solubility ([6]; water, read-out: water solubility) was less than 500 µg/mL, the CFU/kidney reduction ([7]; multi-dose 1, 2, 4 and 8 mg/kg intraperitoneal over 24 hours) was greater than 1 log 10 CFU/kidney and the “in vivo efficacy, single dose” value ([7]; single intraperitoneal dose 16, 32, 48 and 64 mg/kg, 6 h) was “showed in vivo efficacy”.
